In PMC4467398, “Preclinical antitumor activity of ST7612AA1: a new oral thiol-based histone deacetylase (HDAC) inhibitor” (Oncotarget, 2014):

Test system: DOHH2 and TMD8 DLBCL cells
Test: Gene expression profiling (HumanHT-12 v4 BeadChip, limma), ST7612AA1 300 nM 8 hrs vs DMSO
Assay type: cell-based, human
Conditions: 300 nM 8 hrs

## CC(=O)SCCCCC[C@H](NC(=O)[C@H]1CCC(=O)N1)C(=O)Nc1ccccc1 [ST7612AA1]
  AveExpr.ST7612 1999-08-31 (probe ILMN_1659953): 8.50E-01
  AveExpr.ST7612 (probe ILMN_1816244): 7.08E-01
  AveExpr.ST7612 (probe ILMN_1827736): 8.76E-01
  AveExpr.ST7612 (probe ILMN_1909886): 7.98E-01
  AveExpr.ST7612 ABCA7 (probe ILMN_1743205): 7.64E-01
  AveExpr.ST7612 ADARB1 (probe ILMN_1679797): 7.60E-01
  AveExpr.ST7612 ALDH2 (probe ILMN_1793859): 8.03E-01
  AveExpr.ST7612 ALOX5 (probe ILMN_1680996): 8.46E-01
  AveExpr.ST7612 AMOT (probe ILMN_1792409): 7.65E-01
  AveExpr.ST7612 APAF1 (probe ILMN_1659463): 8.78E-01
  AveExpr.ST7612 APLP1 (probe ILMN_1763834): 8.17E-01
  AveExpr.ST7612 ARL6IP1 (probe ILMN_1708416): 6.93E-01
  AveExpr.ST7612 ATG2A (probe ILMN_1756006): 8.92E-01
  AveExpr.ST7612 ATP6V0C (probe ILMN_1773849): 8.22E-01
  AveExpr.ST7612 ATP6V1G2 (probe ILMN_1654541): 8.47E-01
  AveExpr.ST7612 ATP7B (probe ILMN_1722056): 8.88E-01
  AveExpr.ST7612 AVPI1 (probe ILMN_1671731): 8.94E-01
  AveExpr.ST7612 AZI1 (probe ILMN_1746206): 7.59E-01
  AveExpr.ST7612 BIK (probe ILMN_1770505): 7.57E-01
  AveExpr.ST7612 BLVRB (probe ILMN_1797793): 8.74E-01
  AveExpr.ST7612 BNIP3L (probe ILMN_1718961): 8.34E-01
  AveExpr.ST7612 BPHL (probe ILMN_1657746): 8.91E-01
  AveExpr.ST7612 C3orf34 (probe ILMN_1665217): 6.96E-01
  AveExpr.ST7612 C4orf32 (probe ILMN_1700257): 8.83E-01
  AveExpr.ST7612 C12orf52 (probe ILMN_1667857): 6.98E-01
  AveExpr.ST7612 C13orf15 (probe ILMN_1658494): 7.74E-01
  AveExpr.ST7612 C14orf173 (probe ILMN_2393450): 7.70E-01
  AveExpr.ST7612 C14orf179 (probe ILMN_1756877): 7.81E-01
  AveExpr.ST7612 CA2 (probe ILMN_2199439): 7.93E-01
  AveExpr.ST7612 CAMLG (probe ILMN_1714599): 7.30E-01
  AveExpr.ST7612 CASC4 (probe ILMN_2325574): 6.85E-01
  AveExpr.ST7612 CBX7 (probe ILMN_1657361): 7.49E-01
  AveExpr.ST7612 CCDC24 (probe ILMN_1718771): 6.89E-01
  AveExpr.ST7612 CCDC92 (probe ILMN_1731107): 8.05E-01
  AveExpr.ST7612 CD74 (probe ILMN_1761464): 8.47E-01
  AveExpr.ST7612 CD74 (probe ILMN_2379644): 7.27E-01
  AveExpr.ST7612 CDC2L6 (probe ILMN_1676891): 6.96E-01
  AveExpr.ST7612 CDC42EP5 (probe ILMN_1774982): 8.75E-01
  AveExpr.ST7612 CDK2AP2 (probe ILMN_1690653): 8.01E-01
  AveExpr.ST7612 CECR1 (probe ILMN_1751851): 8.43E-01
  AveExpr.ST7612 CLCC1 (probe ILMN_1671933): 8.48E-01
  AveExpr.ST7612 CLIC4 (probe ILMN_2063586): 7.49E-01
  AveExpr.ST7612 CMTM8 (probe ILMN_1710124): 7.00E-01
  AveExpr.ST7612 COTL1 (probe ILMN_1788283): 6.87E-01
  AveExpr.ST7612 CRIP1 (probe ILMN_1656920): 8.56E-01
  AveExpr.ST7612 CRYM (probe ILMN_1779241): 8.32E-01
  AveExpr.ST7612 CSRP1 (probe ILMN_1811921): 7.01E-01
  AveExpr.ST7612 CSTB (probe ILMN_1761797): 8.06E-01
  AveExpr.ST7612 CTSB (probe ILMN_2359742): 8.56E-01
  AveExpr.ST7612 CXADR (probe ILMN_1796925): 8.18E-01
  AveExpr.ST7612 CXorf57 (probe ILMN_1703279): 8.25E-01
  AveExpr.ST7612 CYB5R1 (probe ILMN_1729237): 7.59E-01
  AveExpr.ST7612 CYB5R3 (probe ILMN_1740441): 7.06E-01
  AveExpr.ST7612 CYP2R1 (probe ILMN_2119774): 7.88E-01
  AveExpr.ST7612 DEF8 (probe ILMN_1767509): 8.37E-01
  AveExpr.ST7612 DGCR6L (probe ILMN_3245688): 7.47E-01
  AveExpr.ST7612 DNMT3B (probe ILMN_1794692): 8.14E-01
  AveExpr.ST7612 DSTN (probe ILMN_1706426): 7.52E-01
  AveExpr.ST7612 DYNC1H1 (probe ILMN_1780302): 6.97E-01
  AveExpr.ST7612 DYNLL2 (probe ILMN_1772796): 8.61E-01
  AveExpr.ST7612 DYRK3 (probe ILMN_2400322): 6.97E-01
  AveExpr.ST7612 DYRK3 (probe ILMN_2400326): 8.26E-01
  AveExpr.ST7612 ECHS1 (probe ILMN_1718132): 7.78E-01
  AveExpr.ST7612 EGR1 (probe ILMN_1762899): 8.42E-01
  AveExpr.ST7612 ELOF1 (probe ILMN_1723185): 7.14E-01
  AveExpr.ST7612 ENC1 (probe ILMN_1779147): 7.93E-01
  AveExpr.ST7612 ENO2 (probe ILMN_1765796): 7.11E-01
  AveExpr.ST7612 ERRFI1 (probe ILMN_1665510): 7.44E-01
  AveExpr.ST7612 ESAM (probe ILMN_1668092): 7.54E-01
  AveExpr.ST7612 F11R (probe ILMN_2342033): 8.81E-01
  AveExpr.ST7612 FAM65A (probe ILMN_1680037): 7.70E-01
  AveExpr.ST7612 FAM116B (probe ILMN_1659029): 7.74E-01
  AveExpr.ST7612 FAM120B (probe ILMN_1679641): 7.62E-01
  AveExpr.ST7612 FAM149B1 (probe ILMN_3245452): 7.21E-01
  AveExpr.ST7612 FAM167A (probe ILMN_3248511): 7.13E-01
  AveExpr.ST7612 FBXO18 (probe ILMN_1729430): 7.97E-01
  AveExpr.ST7612 FCGRT (probe ILMN_1705302): 6.92E-01
  AveExpr.ST7612 FGD2 (probe ILMN_2115005): 7.14E-01
  AveExpr.ST7612 FGF9 (probe ILMN_1762531): 7.84E-01
  AveExpr.ST7612 FHL1 (probe ILMN_1805842): 7.76E-01
  AveExpr.ST7612 FLJ22795 (probe ILMN_2150802): 8.56E-01
  AveExpr.ST7612 FOXC1 (probe ILMN_1738401): 8.63E-01
  AveExpr.ST7612 FOXO1 (probe ILMN_1738816): 8.61E-01
  AveExpr.ST7612 FOXO4 (probe ILMN_1712095): 6.93E-01
  AveExpr.ST7612 FSD1 (probe ILMN_1813490): 7.25E-01
  AveExpr.ST7612 FUCA1 (probe ILMN_1752728): 8.57E-01
  AveExpr.ST7612 G6PD (probe ILMN_1697559): 6.93E-01
  AveExpr.ST7612 GABARAPL2 (probe ILMN_1796458): 7.62E-01
  AveExpr.ST7612 GAMT (probe ILMN_1756469): 8.74E-01
  AveExpr.ST7612 GATM (probe ILMN_1729180): 7.75E-01
  AveExpr.ST7612 GCH1 (probe ILMN_1812759): 7.11E-01
  AveExpr.ST7612 GOLGB1 (probe ILMN_1747935): 7.13E-01
  AveExpr.ST7612 GPT2 (probe ILMN_1684158): 8.12E-01
  AveExpr.ST7612 GRN (probe ILMN_1724250): 8.24E-01
  AveExpr.ST7612 HABP4 (probe ILMN_2107991): 7.82E-01
  AveExpr.ST7612 HAGH (probe ILMN_1772731): 8.84E-01
  AveExpr.ST7612 HERC1 (probe ILMN_1786211): 7.40E-01
  AveExpr.ST7612 HERPUD1 (probe ILMN_2374159): 8.50E-01
  AveExpr.ST7612 HEY1 (probe ILMN_1788203): 8.91E-01
  AveExpr.ST7612 HEY2 (probe ILMN_1682034): 7.56E-01
  AveExpr.ST7612 HIST1H1C (probe ILMN_1757406): 8.24E-01
  AveExpr.ST7612 HIST2H2AA3 (probe ILMN_2144426): 8.03E-01
  AveExpr.ST7612 HLA-DPA1 (probe ILMN_1772218): 8.12E-01
  AveExpr.ST7612 HLA-DQA1 (probe ILMN_1808405): 8.25E-01
  AveExpr.ST7612 HLA-DRB4 (probe ILMN_1752592): 7.27E-01
  AveExpr.ST7612 HLA-E (probe ILMN_1765258): 8.07E-01
  AveExpr.ST7612 HLTF (probe ILMN_1673820): 7.48E-01
  AveExpr.ST7612 HOOK2 (probe ILMN_1682147): 7.36E-01
  AveExpr.ST7612 HSPA1B (probe ILMN_1660436): 7.16E-01
  AveExpr.ST7612 ID1 (probe ILMN_1664861): 7.75E-01
  AveExpr.ST7612 IFFO1 (probe ILMN_2348268): 8.07E-01
  AveExpr.ST7612 IGSF3 (probe ILMN_1704353): 8.50E-01
  AveExpr.ST7612 ITGB1 (probe ILMN_1714820): 7.06E-01
  AveExpr.ST7612 ITPKA (probe ILMN_1776516): 7.10E-01
  AveExpr.ST7612 JAK1 (probe ILMN_1793384): 7.91E-01
  AveExpr.ST7612 KLHL5 (probe ILMN_1706687): 8.05E-01
  AveExpr.ST7612 KLRAQ1 (probe ILMN_3271092): 7.11E-01
  AveExpr.ST7612 LCMT1 (probe ILMN_1688452): 7.21E-01
  AveExpr.ST7612 LCMT1 (probe ILMN_2336186): 7.52E-01
  AveExpr.ST7612 LMNA (probe ILMN_1737394): 7.98E-01
  AveExpr.ST7612 LOC151162 (probe ILMN_3238058): 7.72E-01
  AveExpr.ST7612 LOC253039 (probe ILMN_3236498): 8.10E-01
  AveExpr.ST7612 LOC283683 (probe ILMN_1659327): 8.30E-01
  AveExpr.ST7612 LOC388588 (probe ILMN_1749834): 7.07E-01
  AveExpr.ST7612 LOC654191 (probe ILMN_1762308): 7.84E-01
  AveExpr.ST7612 LOC727935 (probe ILMN_1691616): 7.14E-01
  AveExpr.ST7612 LOC728014 (probe ILMN_1711699): 8.58E-01
  AveExpr.ST7612 LOC729495 (probe ILMN_3297510): 7.45E-01
  AveExpr.ST7612 LOC730101 (probe ILMN_3305735): 7.41E-01
  AveExpr.ST7612 LOC730415 (probe ILMN_3228688): 6.95E-01
  AveExpr.ST7612 LOC731314 (probe ILMN_1785756): 8.31E-01
  AveExpr.ST7612 LOC100128163 (probe ILMN_3182893): 7.83E-01
  AveExpr.ST7612 LOC100131727 (probe ILMN_3292990): 7.73E-01
  AveExpr.ST7612 LOC100133583 (probe ILMN_3214389): 8.94E-01
  AveExpr.ST7612 LOC100133678 (probe ILMN_3249667): 8.11E-01
  AveExpr.ST7612 LOC100134361 (probe ILMN_3241081): 8.59E-01
  AveExpr.ST7612 LRCH4 (probe ILMN_2157075): 8.54E-01
  AveExpr.ST7612 LRRC1 (probe ILMN_1755383): 7.83E-01
  AveExpr.ST7612 LTA4H (probe ILMN_1690342): 7.50E-01
  AveExpr.ST7612 LYRM5 (probe ILMN_1744534): 7.90E-01
  AveExpr.ST7612 LYSMD4 (probe ILMN_2159859): 6.95E-01
  AveExpr.ST7612 MAP1LC3B (probe ILMN_1703244): 7.73E-01
  AveExpr.ST7612 MAP2K1 (probe ILMN_1694240): 7.15E-01
  AveExpr.ST7612 MAPRE2 (probe ILMN_1695276): 7.72E-01
  AveExpr.ST7612 MARCKSL1 (probe ILMN_1714433): 8.47E-01
  AveExpr.ST7612 MAST3 (probe ILMN_1738749): 7.21E-01
  AveExpr.ST7612 MNS1 (probe ILMN_2157240): 7.07E-01
  AveExpr.ST7612 MTE (probe ILMN_2136089): 8.56E-01
  AveExpr.ST7612 MYBL1 (probe ILMN_3241046): 7.69E-01
